Values after ≈ are worked out from the molar mass of the structure shown. Like-named read-outs stand apart in the source and are kept apart here.
Assays:
T47D = assay: Inhibition of cancer cell growth as measured by cell number, T47D; format: cell-based; settings: Homo sapiens, 48 h, read-out: IC50 T47D
[1] = biological target: recombinant human MEK 1 (MAPKK) and recombinant human ERK2 (MAPK); assay: Mitogen Activated Protein Kinase (MAPK) assay, two component coupled MEK 1 / ERK2; format: biochemical; settings: separate entries for the same compound = evaluated more than one time;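 also: MEK 1-activated ERK2 phosphorylates MBP or Myc peptide with 33P-ATP, filter capture and scintillation counting, inhibitor preincubated with ERK2 30 min at 0 °C, inhibition relative to uninhibited control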
CCRF-CFM = assay: Inhibition of cancer cell growth as measured by cell number, CCRF-CFM; format: cell-based; settings: Homo sapiens, 48 h, read-out: IC50 CCRF-CFM
COLO205 = assay: Inhibition of cancer cell growth as measured by cell number, COLO205; format: cell-based; settings: Homo sapiens, COLO 205, 48 h, read-out: IC50 COLO205
CCL228 = assay: Inhibition of cancer cell growth as measured by cell number, CCL228; format: cell-based; settings: Homo sapiens, 48 h, read-out: IC50 CCL228
LX1 = assay: Inhibition of cancer cell growth as measured by cell number, LX1; format: cell-based; settings: Homo sapiens, LX-1, 48 h, read-out: IC50 LX1
A2780DDP = assay: Inhibition of cancer cell growth as measured by cell number, A2780DDP; format: cell-based; settings: Homo sapiens, 48 h, read-out: IC50 A2780DDP
PC3 = assay: Inhibition of cancer cell growth as measured by cell number, PC3; format: cell-based; settings: Homo sapiens, PC-3, 48 h, read-out: IC50 PC3
SW948 = assay: Inhibition of cancer cell growth as measured by cell number, SW948; format: cell-based; settings: Homo sapiens, SW948, 48 h, read-out: IC50 SW948
MCF7 = assay: Inhibition of cancer cell growth as measured by cell number, MCF7; format: cell-based, human; settings: Homo sapiens, MCF7, 48 h, read-out: IC50 MCF7, cell number, Sulforhodamine B, 48 hours exposure; Table 5;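 also: MCF7 was included as a line with little or no EGFR or HER2/neu expression, in contrast to the receptor-overexpressing lines of the panel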
Description: (§1) The cell lines were chosen since they overexpressed epidermal growth factor receptor (EGFR) (i.e. A431) or HER2/neu (SKBR3), or had little to no expression of the these receptors (SW620, LOX, MCF7).

A549 = assay: Inhibition of cancer cell growth as measured by cell number, A549; format: cell-based; settings: Homo sapiens, A549, 48 h, read-out: IC50 A549
CACO2 = assay: Inhibition of cancer cell growth as measured by cell number, CACO2; format: cell-based; settings: Homo sapiens, Caco-2, 48 h, read-out: IC50 CACO2
HL60 = assay: Inhibition of cancer cell growth as measured by cell number, HL60; format: cell-based; settings: Homo sapiens, HL-60, 48 h, read-out: IC50 HL60
LNCAP = assay: Inhibition of cancer cell growth as measured by cell number, LNCAP; format: cell-based; settings: Homo sapiens, 48 h, read-out: IC50 LNCAP
LOX = assay: Inhibition of cancer cell growth as measured by cell number, LOX; format: cell-based, human; settings: Homo sapiens, LOX, 48 h, read-out: IC50 LOX, cell number, Sulforhodamine B, 48 hours exposure; Table 6;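 also: LOX cells served as a line with low or absent EGFR and HER2/neu expression, in contrast to receptor-overexpressing lines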
Description: as §1

MIP = assay: Inhibition of cancer cell growth as measured by cell number, MIP; format: cell-based; settings: Homo sapiens; cell number, Sulforhodamine B, 48 hours exposure; Table 4; read-out: IC50 MIP
HTB161 = assay: Inhibition of cancer cell growth as measured by cell number, HTB161; format: cell-based; settings: Homo sapiens, 48 h, read-out: IC50 HTB161
SW620 = assay: Inhibition of cancer cell growth as measured by cell number, SW620; format: cell-based, human; settings: Homo sapiens, SW-620, 48 h;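 also: SW620 was included as a cell line with little or no EGFR or HER2/neu expression, in contrast to receptor-overexpressing lines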
Description: as §1

A431 [2] = assay: Inhibition of cancer cell growth as measured by cell number, A431; format: cell-based, human; settings: Homo sapiens, A-431, 48 h, read-out: IC50 A431, cell number, Sulforhodamine B, 48 hours exposure; Table 6;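 also: human A431 line, picked because it overexpresses epidermal growth factor receptor (EGFR)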
Description: as §1

SKBR3 = assay: Inhibition of cancer cell growth as measured by cell number, SKBR3; format: cell-based, human; settings: Homo sapiens, SK-BR-3, 48 h, read-out: IC50 SKBR3, cell number, Sulforhodamine B, 48 hours exposure; Table 7;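 also: SK-BR-3 cells were selected as a line overexpressing HER2/neu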
Description: as §1

LS174T = assay: Inhibition of cancer cell growth as measured by cell number, LS174T; format: cell-based; settings: Homo sapiens, 48 h, read-out: IC50 LS174T
A27805 = assay: Inhibition of cancer cell growth as measured by cell number, A27805; format: cell-based; settings: Homo sapiens, 48 h, read-out: IC50 A27805
B7474 = assay: Inhibition of cancer cell growth as measured by cell number, B7474; format: cell-based; settings: Homo sapiens, 48 h, read-out: IC50 B7474
NEC = assay: Inhibition of cancer cell growth as measured by cell number, NEC; format: cell-based; settings: Homo sapiens, 48 h, read-out: IC50 NEC
DU145 = assay: Inhibition of cancer cell growth as measured by cell number, DU145; format: cell-based; settings: Homo sapiens, DU-145, 48 h, read-out: IC50 DU145
CX1 = assay: Inhibition of cancer cell growth as measured by cell number, CX1; format: cell-based; settings: Homo sapiens, CX-1, 48 h, read-out: IC50 CX1
HCT15 = assay: Inhibition of cancer cell growth as measured by cell number, HCT15; format: cell-based; settings: Homo sapiens, HCT-15, 48 h, read-out: IC50 HCT15
[3] = biological target: T1, Kinase insert Domain containing Receptor (KDR: the catalytic domain of the VEGF receptor) (Homo sapiens, UniProt P35968); assay: Inhibition of Kinase insert Domain containing Receptor (KDR); format: biochemical; settings: pH 7.2; radioactive format; read-out: KDR IC50 (converted);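 also: KDR phosphorylating a Glu:Tyr 4:1 copolymer with P32- or P33-labelled ATP, Mg++ and vanadate, read as acid-insoluble radiolabel, compared with compound-free reaction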
T1 construct: KDR: the catalytic domain of the VEGF receptor
T1 sequence (P35968 834-1162 limits assumed): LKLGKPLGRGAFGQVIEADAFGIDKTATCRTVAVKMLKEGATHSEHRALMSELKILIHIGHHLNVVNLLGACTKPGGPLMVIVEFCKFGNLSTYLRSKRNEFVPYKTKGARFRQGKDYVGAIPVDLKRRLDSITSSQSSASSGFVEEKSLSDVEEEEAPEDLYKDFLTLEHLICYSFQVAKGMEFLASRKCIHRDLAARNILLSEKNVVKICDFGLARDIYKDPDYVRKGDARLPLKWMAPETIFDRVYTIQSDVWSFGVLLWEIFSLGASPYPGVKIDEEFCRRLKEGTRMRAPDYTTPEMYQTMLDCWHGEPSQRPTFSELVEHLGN

[4] = biological target: Epithelial Cell Kinase (ECK) (Homo sapiens, UniProt P29317); assay: biochemical
Chain of Epithelial Cell Kinase (ECK) (P29317 24-976, species assumed): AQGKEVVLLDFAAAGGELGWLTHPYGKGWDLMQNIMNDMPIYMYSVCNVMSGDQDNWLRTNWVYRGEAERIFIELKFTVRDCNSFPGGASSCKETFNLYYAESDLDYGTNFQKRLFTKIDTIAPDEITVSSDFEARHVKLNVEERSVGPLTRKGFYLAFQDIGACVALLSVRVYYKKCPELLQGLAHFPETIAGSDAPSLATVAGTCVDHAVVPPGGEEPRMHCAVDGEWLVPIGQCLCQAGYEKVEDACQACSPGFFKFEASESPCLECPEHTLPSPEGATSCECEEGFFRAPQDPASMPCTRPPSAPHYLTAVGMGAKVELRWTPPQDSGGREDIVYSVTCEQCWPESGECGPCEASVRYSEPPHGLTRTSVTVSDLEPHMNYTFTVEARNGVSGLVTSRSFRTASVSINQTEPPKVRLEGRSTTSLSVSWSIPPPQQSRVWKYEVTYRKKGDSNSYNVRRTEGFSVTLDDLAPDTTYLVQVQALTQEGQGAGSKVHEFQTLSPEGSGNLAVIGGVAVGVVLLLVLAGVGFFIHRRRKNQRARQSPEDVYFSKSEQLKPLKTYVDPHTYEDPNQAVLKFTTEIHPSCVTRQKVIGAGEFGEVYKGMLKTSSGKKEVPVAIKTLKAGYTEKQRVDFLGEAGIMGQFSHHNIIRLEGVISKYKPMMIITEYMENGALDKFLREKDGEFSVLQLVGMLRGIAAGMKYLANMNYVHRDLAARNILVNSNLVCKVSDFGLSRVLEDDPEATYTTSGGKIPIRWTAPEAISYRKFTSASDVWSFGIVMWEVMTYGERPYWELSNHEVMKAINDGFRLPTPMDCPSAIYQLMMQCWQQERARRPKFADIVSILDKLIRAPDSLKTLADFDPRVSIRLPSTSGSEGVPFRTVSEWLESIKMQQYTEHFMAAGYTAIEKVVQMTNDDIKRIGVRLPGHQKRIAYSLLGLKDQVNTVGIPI
Protocol: In this standard pharmacological test procedure, a biotinylated peptide substrate is first immobilized on neutravidin-coated microtiter plates. The test drug, the Epithelial Cell Kinase (ECK), Mg^++, sodium vanadate (a protein tyrosine phosphatase inhibitor), and an appropriate buffer to maintain pH (7.2) are then added to the immobilized substrate-containing microtiter wells. ATP is then added to initiate phosphorylation. After incubation, the assay plates are washed with a suitable buffer leaving behind phosphorylated peptide which is exposed to horse radish peroxidase (HRP)-conjugated anti-phosphotyrosine monoclonal antibody. The antibody-treated plates are washed again and the HRP activity in individual wells is quantified as a reflection of degree of substrate phosphorylation.

A431 [5] = assay: Inhibition of cell growth by incorporation of [3H]-thymidine, A431; format: cell-based, human; settings: Homo sapiens, A-431; [3H]-thymidine incorporation; A431; read-out: IC50 A431
[6] = read-out: IC50 SW620, cell number, Sulforhodamine B, 48 hours exposure, Table 4

| Structure (SMILES) | IC50 (T47D) [µg/mL] | IC50 [1] [µM] | IC50 (CCRF-CFM) [µg/mL] | IC50 (COLO205) [µg/mL] | IC50 (CCL228) [µg/mL] | IC50 (LX1) [µg/mL] | IC50 (A2780DDP) [µg/mL] | IC50 (PC3) [µg/mL] | IC50 (SW948) [µg/mL] | IC50 (MCF7) [µg/mL] | IC50 (A549) [µg/mL] | IC50 (CACO2) [µg/mL] | IC50 (HL60) [µg/mL] | IC50 (LNCAP) [µg/mL] | IC50 (LOX) [µg/mL] | IC50 (MIP) [µg/mL] | IC50 (HTB161) [µg/mL] | IC50 (SW620; [6]) [µg/mL] | IC50 (A431 [2]) [µg/mL] | IC50 (SKBR3) [µg/mL] | also measured |
| --- | --- | --- | --- | --- | --- | --- | --- | --- | --- | --- | --- | --- | --- | --- | --- | --- | --- | --- | --- | --- | --- |
| COc1cc2ncc(C#N)c(Nc3cccc(Br)c3)c2cc1[N+](=O)[O-] [Example 6] | 3.26 (≈ 8.18 µM) | > 100 | 2.57 (≈ 6.44 µM) | 5.51 (≈ 13.8 µM) | 2.35 (≈ 5.88 µM) | 5.55 (≈ 13.9 µM) | 3.22 (≈ 8.06 µM) | 4.69 (≈ 11.7 µM) | 5.2 (≈ 13 µM) | 4.27 (≈ 10.7 µM) | 4.45 (≈ 11.1 µM) | 0.808 (≈ 2.02 µM) | 0.947 (≈ 2.37 µM) | 4.19 (≈ 10.5 µM) | 0.813 (≈ 2.04 µM) | 0.95 (≈ 2.38 µM) | 1.66 (≈ 4.15 µM) | 4.71 (≈ 11.8 µM) | 0.845 (≈ 2.12 µM) | 4.2 (≈ 10.5 µM) | IC50 (LS174T): 2.67 µg/mL (≈ 6.7 µM); IC50 (A27805): 2.49 µg/mL (≈ 6.23 µM); IC50 (B7474): 3.76 µg/mL (≈ 9.41 µM); IC50 (NEC): 4.17 µg/mL (≈ 10.4 µM); IC50 (DU145): 1.03 µg/mL (≈ 2.59 µM); IC50 (CX1): 3.02 µg/mL (≈ 7.58 µM); IC50 (HCT15): 1.75 µg/mL (≈ 4.38 µM) |
| C=CC(=O)Nc1cc2c(Nc3cccc(Br)c3)c(C#N)cnc2cc1OC [Example 9, N-[4-[(3-Bromophenyl)amino]-3-cyano-7-methoxy-6-quinolinyl]-2-propenamide] | 0.838 (≈ 1.98 µM) | > 100 | 0.551 (≈ 1.3 µM) | 2.56 (≈ 6.06 µM) | 0.707 (≈ 1.67 µM) | 0.0672 (≈ 0.159 µM) | 0.513 (≈ 1.21 µM) | 1.66 (≈ 3.92 µM) | 3.3 (≈ 7.8 µM) | 3.25 (≈ 7.69 µM) | 2.92 (≈ 6.89 µM) | 0.341 (≈ 0.805 µM) | 0.758 (≈ 1.79 µM) | 0.661 (≈ 1.56 µM) | 0.438 (≈ 1.04 µM) | 0.731 (≈ 1.73 µM) | 0.341 (≈ 0.806 µM) | 1.94 (≈ 4.58 µM) | 0.433 (≈ 1.02 µM) | 0.862 (≈ 2.04 µM) | IC50 [3]: > 70.9 µM; IC50 (LS174T): 0.712 µg/mL (≈ 1.68 µM); IC50 (A27805): 0.542 µg/mL (≈ 1.28 µM); IC50 (B7474): 0.443 µg/mL (≈ 1.05 µM); IC50 (NEC): 0.952 µg/mL (≈ 2.25 µM); IC50 (DU145): 0.388 µg/mL (≈ 0.916 µM); IC50 (CX1): 0.91 µg/mL (≈ 2.15 µM); IC50 (HCT15): 0.984 µg/mL (≈ 2.33 µM) |
| N#Cc1cnc2ccc([N+](=O)[O-])cc2c1Nc1cccc(C(F)(F)F)c1 [Example 23, 6-Nitro-4[(3-trifluoromethylphenyl)amino]-3-quinolinecarbonitrile] |  | > 100 |  | > 100 |  |  |  |  | > 100 |  |  |  |  |  |  |  |  |  |  |  | IC50 (SW620; read-out: IC50 SW620): > 100 µg/mL; IC50 [4]: 27.9 µM |
| COc1cc2[nH]cc(C#N)c(=O)c2cc1OC [Example 33, 1,4-Dihydro-6,7-dimethoxy-4-oxo-3-quinolinecarbonitrile] |  |  |  |  |  |  |  |  |  |  |  |  |  |  |  |  |  |  |  |  | IC50 (A431 [5]): 18 µM |
